Tests used:
[1] = system: cultured human mast cells (CHMC); test: CHMC low cell density ionomycin activation: tryptase assay; format: cell-based
[2] = system: cultured human mast cells (CHMC); test: CHMC low cell density IgE activation: tryptase assay; format: cell-based; conditions: anti-IgE
Procedure, shortened: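 Read-out: tryptase released into supernatant, measured by substrate turnover over 30 min at RT. Low-density CHMC (1000-1500 cells/well, per donor degranulation activity) in MT buffer, 1 hr at 37° C, then anti-IgE challenge 30 min at 37° C.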

For COc1ccc([C@@H](C)Nc2ncc(Br)c(N[C@H](C)c3ccc(OC)cc3)n2)cc1 [R935016, N2,N4-Bis[1(R)-4-methoxyphenylethyl]-5-bromo-2,4-pyrimidineamine], the IC50 [1] was over 10000 nM and the IC50 [2] was over 10000 nM.
Oc1cccc(Nc2nc(Nc3ccc(OCc4nc(-c5ccccc5)no4)cc3)ncc2F)c1 [R935134, 5-Fluoro-N4-(3-hydroxyphenyl)-N2-[4-(3-phenyl-1,2,4-oxadiazol-5-yl)methyleneoxyphenyl]-2,4-pyrimidinediamine] was tested, and the IC50 [1] was 1800 nM and the IC50 [2] was 909 nM.
Work on CC(C)Oc1ccc(Nc2nc(Nc3ccc(OCc4nc(-c5ccccc5)no4)cc3)ncc2F)cc1 [R935135, 5-Fluoro-N4-(4-isopropoxyphenyl)-N2-[4-(3-phenyl-1,2,4-oxadiazol-5-yl)methyleneoxyphenyl]-2,4-pyrimidinediamine] yielded an IC50 [1] of over 10000 nM and an IC50 [2] of 10000 nM.
Fc1cnc(Nc2ccc(OCc3nc(-c4ccccc4)no3)cc2)nc1Nc1ccc2c(c1)OCCO2 [R935136, N4-(3,4-Ethylenedioxyphenyl)-5-fluoro-N2-[4-(3-phenyl-1,2,4-oxadiazol-5-yl)methyleneoxyphenyl]-2,4-pyrimidinediamine] was tested, and the IC50 [1] was 2130 nM and the IC50 [2] was 952 nM.
In the case of COC(=O)c1cc2cc(Nc3nc(Nc4ccc(OCc5nc(-c6ccccc6)no5)cc4)ncc3F)ccc2o1 [R935137, 5-Fluoro-N4-(2-methoxycarbonylbenzofura-5-yl)-N2-[4-(3-phenyl-1,2,4-oxadiazol-5-yl)methyleneoxyphenyl]-2,4-pyrimidinediamine], the IC50 [1] is reported as over 10000 nM and the IC50 [2] is reported as 10000 nM.
Work on CC(C)Oc1ccc(Nc2ncc(F)c(Nc3ccc(OCc4nc(-c5ccccc5)no4)cc3)n2)cc1 [R935139, 5-Fluoro-N2-(4-isopropoxyphenyl)-N4-[4-(3-phenyl-1,2,4-oxadiazol-5-yl)methyleneoxyphenyl]-2,4-pyrimidinediamine] yielded an IC50 [1] of over 10000 nM and an IC50 [2] of 846 nM.
For Fc1cnc(Nc2ccc3c(c2)OCCO3)nc1Nc1ccc(OCc2nc(-c3ccccc3)no2)cc1 [R935140, N2-(3,4-Ethylenedioxyphenyl)-5-fluoro-N4-[4-(3-phenyl-1,2,4-oxadiazol-5-yl)methyleneoxyphenyl]-2,4-pyrimidinediamine], the IC50 [1] was 959 nM and the IC50 [2] was 275 nM.
Compound Cc1noc(COc2ccc(Nc3ncc(F)c(Nc4cccc(O)c4)n3)cc2)n1 [R935141, 5-Fluoro-N4-(3-hydroxyphenyl)-N2-[4-(3-methyl-1,2,4-oxadiazol-5-yl)methyleneoxyphenyl]-2,4-pyrimidinediamine] has an IC50 [1] of over 10000 nM and an IC50 [2] of 727 nM.
Cc1noc(COc2ccc(Nc3ncc(F)c(Nc4ccc(OC(C)C)cc4)n3)cc2)n1 [R935142, 5-Fluoro-N4-(4-isopropoxyphenyl)-N2-[4-(3-methyl-1,2,4-oxadiazol-5-yl)methyleneoxyphenyl]-2,4-pyrimidinediamine] was tested, and the IC50 [1] was over 10000 nM and the IC50 [2] was 873 nM.
In the case of Cc1noc(COc2ccc(Nc3ncc(F)c(Nc4ccc5c(c4)OCCO5)n3)cc2)n1 [R935143, N4-(3,4-Ethylenedioxyphenyl)-5-fluoro-N2-[4-(3-methyl-1,2,4-oxadiazol-5-yl)methyleneoxyphenyl]-2,4-pyrimidinediamine], the IC50 [1] is reported as over 10000 nM and the IC50 [2] is reported as 573 nM.
Cc1noc(COc2ccc(Nc3nc(Nc4ccc(OC(C)C)cc4)ncc3F)cc2)n1 [R935144, 5-Fluoro-N2-(4-isopropoxyphenyl)-N4-[4-(3-methyl-1,2,4-oxadiazol-5-yl)methyleneoxyphenyl]-2,4-pyrimidinediamine] gave an IC50 [1] of over 10000 nM and an IC50 [2] of 630 nM.
Work on COC(=O)c1cc2cc(Nc3ncc(F)c(Nc4ccc(OCc5nc(C)no5)cc4)n3)ccc2o1 [R935146, 5-Fluoro-N2-(2-methoxycarbonylbenzofura-5-yl)-N4-[4-(3-methyl-1,2,4-oxadiazol-5-yl)methyleneoxyphenyl]-2,4-pyrimidinediamine] yielded an IC50 [1] of over 10000 nM and an IC50 [2] of 3800 nM.
Cc1noc(COc2ccc(Nc3nc(Nc4cccc(O)c4)ncc3F)cc2)n1 [R935147, 5-Fluoro-N2-(3-hydroxyphenyl)-N4-[4-(3-methyl-1,2,4-oxadiazol-5-yl)methyleneoxyphenyl]-2,4-pyrimidinediamine] was tested, and the IC50 [1] was over 10000 nM and the IC50 [2] was 1400 nM.

From US9499493B2, “2,4-pyrimidinediamine compounds and their uses” (Rigel Pharmaceuticals, Inc., priority 2002, dated 2016)
